Reference: US9403756B2, “N-phenyl anthranilic acid derivatives and uses thereof” (Ramot at Tel-Aviv University Ltd., priority 2007, dated 2016)

What was measured:
[1] = test system: primary hippocampal neurons; experiment: Spontaneous and miniature EPSCs/IPSCs in primary hippocampal neurons, voltage-clamp; assay type: cell-based, rat; conditions: for effect on amplitude of miniature EPSCs and IPSCs: NH29 at 25 μM, data not shown
Description: For hippocampal neuronal cultures, Sprague-Dawley rat embryos (E18) were removed by caesarian section and their hippocampi were dissected out. The tissue was digested with papain for 20 min, triturated to a single-cell suspension, and plated at a density of 40,000 cells per ml on a substrate of bovine collagen type IV and 100 μg/ml poly-L-lysine in 13 mm diameter glass coverslips of a 24-multiwell plate. The culture medium consisted of Modified Eagle's Medium containing 5% horse serum (Biological Industries, Beit HaEmek, Israel), B-27 neuronal supplement (Invitrogen, Carlsbad, Calif.), 100 U/ml penicillin, 100 μg/ml streptomycin, and 2 mM glutamine. D-glucose was supplemented to a final concentration of 6 g/l. Cytosine-1-D-arabinofuranoside (5 μM) was added after 5 days to arrest glial cell proliferation.
For electrophysiological recordings hippocampal neurons were used at 10-14 days in culture. All cultures were maintained at 37° C. in humidified air containing 5% CO2.
Spontaneous excitatory postsynaptic currents (EPSCs) were recorded in the voltage-clamp configuration of the whole-cell patch-clamp technique at a holding potential of −70 mV as previously described; the extracellular solution contained (in mM) 160 NaCl, 2.5 KCl, 10 HEPES, 10 glucose, 2 CaCl2; pH 7.3 (325 mOsm), to which 30 μM picrotoxin and 10 μM bicuculline methyl iodide were added. The intracellular solution consisted (in mM) of 130 K-gluconate, 10 KCl, 1.1 EGTA, 10 HEPES, 1 MgCl2, 2 Na2ATP, 0.1 CaCl2 and 5 QX314Br to block Na^+ currents; pH 7.2 (315 mOsm).
Spontaneous inhibitory postsynaptic currents (IPSCs) were recorded at a holding potential of −70 mV; the extracellular solution contained (in mM) 160 NaCl, 2.5 KCl, 10 HEPES, 10 glucose, 2 CaCl2; pH 7.3 (325 mOsm), to which 10 μM NBQX and 10 μM AP-5 were added. The intracellular solution consisted (in mM) of 144 CsCl, 10 HEPES, 1.1 EGTA, 0.1 CaCl2, 5 MgCl2, 2 Na2ATP, 5 QX314 Br; pH 7.3 (315 mOsm).
Data analysis was performed using the Clampfit program (pClamp 9.2, Molecular Devices), Microsoft Excel (Microsoft) and Prism 4.0 (GraphPad). Chord conductance (G) was calculated by using the following equation: G=I/(V−Vrev) where I corresponds to the current amplitude measured at the end of the pulse and Vrev, the calculated reversal potential. G was estimated at various test voltages V and then, normalized to a maximal conductance value, Gmax. Activation curves were fitted by one Boltzmann distribution: G/Gmax=1/{1+exp[(V50−V)/s]} where V50 is the voltage at which the current is half-activated and s is the slope factor. All data were expressed as mean±SEM. Statistically significant differences were assessed by Student's t-test. Analysis of sEPSCs and sIPSCs was done using the Clampfit program (pClamp 9.2, Molecular Devices) and included evaluation of the individual events as well as the average event amplitude and the integral of the event (total charge transfer).
Because of their slow activation and their lack of inactivation, M-channels could modulate neuronal activity during repetitive spike discharge and tune neurotransmitter release. FIG. 6 illustrates the effect of NH25 on synaptic transmission and transmitter release. Spontaneous excitatory and inhibitory post-synaptic currents (sEPSCs and sIPSCs) were recorded from dense cultures of primary hippocampal neurons, using the voltage-clamp configuration of the whole-cell patch-clamp technique.

DRG neurons = experiment: Current-clamp recordings in cultured DRG neurons; assay type: cell-based, rat; conditions: for rheobase current to generate a single spike: 2 ms injection
Description: For dorsal root ganglion (DRG) neuronal cultures, ganglia were dissected from 2-5 day-old Sprague-Dawley rats killed by decapitation. DRGs were placed in Hank's balanced saline solution (HBSS) and prepared by enzymatic dissociation. Briefly, after 30 minutes incubation in 5 mg/ml dispase, 2 mg/ml collagenase type 1A and 0.1 mg/ml DNase (Invitrogen/Gibco, Carlsbad, Calif.) in Ca^2+ and Mg^2+-free HBSS, the ganglia were mechanically triturated with a fire-polished glass Pasteur pipette. The ganglia were then centrifuged for 5 minutes at 80×g and resuspended in DMEM supplemented with 2 mM L-glutamine, 16.5 mM NaHCO3, 6 g/l glucose, 5 ml penicillin/streptomycin and 10% fetal calf serum.
For electrophysiological recording, dissociated neurons were plated on 13 mm glass coverslips, previously coated with poly-D-lysine (1 mg/ml) and laminin (10 μg/ml) and used at 1-2 days in culture.
For current-clamp recordings in primary cultured neurons, the patch pipettes were filled with (in mM): 135 KCl, 1 K2ATP, 1 MgATP, 2 EGTA, 1.1 CaCl2, 5 glucose, 10 HEPES, adjusted with KOH at pH 7.4 (315 mOsm). The external solution contained (in mM): 150 NaCl, 2.5 KCl, 2 CaCl2, 2 MgCl2, 15 glucose, 10 HEPES, adjusted with NaOH at pH 7.4 (325 mOsm). Recordings were sampled at 5 kHz and filtered at 2 KHz via a 4-pole Bessel low pass filter. A liquid junction potential of about −15.6 mV was measured between the intracellular and saline solutions and corrected on-line.
For evoking spike discharges, 75-200 pA square depolarizing current pulses were injected into neurons for 400 ms. For rheobase current measurements, 100-1100 pA square depolarizing current pulses were injected into neurons for 2 ms.

| Compound | effect on amplitude and kinetics of sIPSCs ([1]; 25 μM) | reduction of charge transfer within the bursts of sEPSCs ([1]; 25 μM) | reduction of total charge transfer of sEPSCs ([1]; 25 μM) | effect on burst duration of sEPSCs ([1]; 25 μM, holding potential −70 mV) | effect on amplitude of miniature EPSCs and IPSCs [1] | inhibition at 25 µM ([1]; Rattus norvegicus, Hippocampal neuron, 25 μM, holding potential −70 mV, read-out: inhibition of sIPSCs frequency of spontaneous occurrence) | rheobase current to generate a single spike (DRG neurons; 25 μM NH25, control 400±41 pA, n=12) | number of evoked action potentials (DRG neurons; 25 μM NH25, 75-200 pA for 400 ms, control 10.4±0.8, n=8) | resting membrane potential (DRG neurons; 25 μM NH25, control −60.6±0.3 mV, n=13) | hyperpolarization of resting membrane potential (DRG neurons; 25 μM NH25, n=13) | rheobase current to generate a single spike (DRG neurons; 25 μM NH29, control 178±36 pA, n=8) | resting membrane potential (DRG neurons; 25 μM NH29, control −56.0±2.2 mV, n=7) | hyperpolarization of resting membrane potential (DRG neurons; 25 μM NH29, n=7) |
| --- | --- | --- | --- | --- | --- | --- | --- | --- | --- | --- | --- | --- | --- |
| O=C(Cc1cc([N+](=O)[O-])ccc1Nc1c(Cl)cccc1Cl)OCCO [NH25] | did not significantly affect | about 50% | about 50% | markedly reduced | did not affect | > 98% | 577±38 pA | 0.8±0.3 | −69.0±0.3 mV | −8.3±0.2 mV |  |  |  |
| O=C(Cc1cc([N+](=O)[O-])cc([N+](=O)[O-])c1Nc1c(Cl)cc([N+](=O)[O-])cc1Cl)NCCO [NH29] |  |  |  |  | did not affect |  |  |  |  |  | 300±55 pA | −65.0±3.4 mV | −9.0±1.9 mV |
